The numbers were not newly measured in patent EP2736496B1, “PHARMACEUTICAL COMPOSITION CONTAINING AN ANTIMUSCARINIC AGENT AND METHOD FOR THE PREPARATION THEREOF” (Pharmathen S.A., priority 2011, dated 2013), which cites them from elsewhere.

≈ marks a conversion by molar mass, not a printed value.

Turning to `Cc1ccc(O)c([C@H](CCN(C(C)C)C(C)C)c2ccccc2)c1` [Tolterodine, (R)-N, N-diisopropyl-3-(2-hydroxy-5-methylphenyl)-3-phenylpropylamine], the water solubility was 12 mg/mL (≈ 36.9 mM).
